Experimental findings from PubChem BioAssay (NCI) are described below.

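Interpolation was linear, between the two tested concentrations surrounding the appropriate level; five concentrations were tested over 48 hours in 96-well plates. GI50: concentration for 50% inhibition of growth. The concentration for full growth arrest is given as TGI.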

Test systems include CAKI-1 renal; HOP-92 NSCLC; NCI/ADR-RES ovarian; PC-3 prostate; RXF 393 renal; SK-OV-3 ovarian; T-47D breast; UACC-62 melanoma.
Assay in all cases: NCI anticancer screen, dose series, 48 h

For `COc1cc2c3c(n(CCN4CCOCC4)c(=O)c2cc1OC)-c1ccccc1C3=O`, the GI50 is 32.9 µM in the test on CAKI-1 renal; greater than 100 µM in the test with HOP-92 NSCLC; greater than 100 µM in the test with NCI/ADR-RES ovarian; greater than 100 µM in the test with PC-3 prostate; greater than 100 µM in the test with RXF 393 renal; 90.4 µM in the test with SK-OV-3 ovarian. In addition, the GI50 in the test with T-47D breast was 27.4 µM; with UACC-62 melanoma, 56.8 µM. Moreover, the TGI with CAKI-1 renal was 72.9 µM; with HOP-92 NSCLC, greater than 100 µM; in the test with NCI/ADR-RES ovarian, greater than 100 µM; in the test with PC-3 prostate, greater than 100 µM; with RXF 393 renal it was greater than 100 µM; in the test on SK-OV-3 ovarian, greater than 100 µM. The TGI was 88 µM in the test on T-47D breast and greater than 100 µM in the test with UACC-62 melanoma.
Regarding `CC(C)(O)CCc1cccc(C(=O)c2cnn(-c3ccc(F)cc3)c2N)c1`, the GI50 in the test with CAKI-1 renal is greater than 25 µM; with HOP-92 NSCLC, 8.7 µM; with NCI/ADR-RES ovarian, greater than 21.9 µM; with PC-3 prostate, greater than 25 µM; in the test with RXF 393 renal it was greater than 25 µM; in the test on SK-OV-3 ovarian, greater than 25 µM. Also, the GI50 is 8.17 µM with T-47D breast and greater than 25 µM in the test on UACC-62 melanoma. Also, the TGI in the test on CAKI-1 renal, in the test with HOP-92 NSCLC, in the test on NCI/ADR-RES ovarian, in the test with PC-3 prostate, with RXF 393 renal and in the test with SK-OV-3 ovarian was greater than 25 µM throughout. The TGI with T-47D breast and with UACC-62 melanoma was greater than 25 µM throughout.
For `Cc1c(Cl)cccc1NC(=O)c1sc2nc3c(cc2c1N)C(=O)CCC3`, the GI50 in the test with CAKI-1 renal is 0.0461 µM; with HOP-92 NSCLC it was 0.0479 µM; in the test on NCI/ADR-RES ovarian, 0.0463 µM; in the test with PC-3 prostate, 0.0517 µM; in the test with RXF 393 renal, 0.037 µM; with SK-OV-3 ovarian, 0.0597 µM. In addition, the GI50 with T-47D breast was 0.055 µM; in the test on UACC-62 melanoma, 0.0502 µM. Also, the TGI with CAKI-1 renal was greater than 100 µM; with HOP-92 NSCLC it was 24.1 µM; in the test with NCI/ADR-RES ovarian, 12.9 µM; with PC-3 prostate, greater than 52.2 µM; with RXF 393 renal it was 1.11 µM; in the test with SK-OV-3 ovarian, greater than 89.7 µM. Further, the TGI with T-47D breast and in the test on UACC-62 melanoma was greater than 100 µM in each case.
Turning to `CNCC(=O)NC(CO)C(=O)NC(CO)C(=O)NC1C(C(N)=O)OC(n2ccc(N)nc2=O)C(O)C1O` (centres undefined), the GI50 was 15.7 µg/mL in the test on CAKI-1 renal; 4.83 µg/mL with HOP-92 NSCLC; 5.79 µg/mL in the test on NCI/ADR-RES ovarian; 10.2 µg/mL in the test with PC-3 prostate; 6.4 µg/mL with RXF 393 renal; 7.66 µg/mL with SK-OV-3 ovarian. Moreover, the values for the GI50 with T-47D breast and in the test on UACC-62 melanoma were greater than 50 µg/mL and 2.88 µg/mL, respectively. The TGI in the test on CAKI-1 renal is greater than 50 µg/mL; with HOP-92 NSCLC, greater than 50 µg/mL; with NCI/ADR-RES ovarian, 28 µg/mL; in the test on PC-3 prostate it was 47.5 µg/mL; with RXF 393 renal, 35.4 µg/mL; in the test on SK-OV-3 ovarian it was 41.7 µg/mL. Further, the TGI in the test on T-47D breast is greater than 50 µg/mL; in the test with UACC-62 melanoma, 16.8 µg/mL.
As for `O=C(N/N=C/c1cc(Cl)ccc1O)c1ccccc1Nc1ccnc(C(F)(F)F)c1`, the GI50 with CAKI-1 renal is 0.405 µM; in the test with HOP-92 NSCLC it was 0.833 µM; with NCI/ADR-RES ovarian, 0.473 µM; in the test with PC-3 prostate it was 1.01 µM; in the test with RXF 393 renal, 0.517 µM; with SK-OV-3 ovarian it was 0.55 µM. The GI50 was 0.633 µM in the test on T-47D breast and 0.331 µM with UACC-62 melanoma. Moreover, the TGI with CAKI-1 renal worked out at 3.87 µM; in the test on HOP-92 NSCLC it was 12.1 µM; in the test on NCI/ADR-RES ovarian it was 9.03 µM; in the test on PC-3 prostate, 35.6 µM; in the test with RXF 393 renal it was 14.1 µM; with SK-OV-3 ovarian, 19.1 µM. The TGI in the test with T-47D breast came to 9.62 µM; in the test with UACC-62 melanoma, 1.75 µM.
With `Cc1ccc(-c2c3c(nn2-c2ccc(S(=O)(=O)NC(=O)NC4CCCCC4)cc2)-c2ccccc2C3)cc1`, the GI50 in the test with CAKI-1 renal is 18 µM; with HOP-92 NSCLC, 2.65 µM; in the test with NCI/ADR-RES ovarian, 16 µM; with PC-3 prostate, 11.1 µM; with RXF 393 renal, 23.3 µM; with SK-OV-3 ovarian it was 18.9 µM. In addition, the values for the GI50 in the test with T-47D breast and with UACC-62 melanoma were 25.7 µM and 16.9 µM, respectively. The TGI with CAKI-1 renal is 41.8 µM; in the test on HOP-92 NSCLC, 15.8 µM; in the test on NCI/ADR-RES ovarian it was 54.5 µM; in the test on PC-3 prostate, 25.3 µM; with RXF 393 renal, 63.1 µM; in the test with SK-OV-3 ovarian it was 42.4 µM. Moreover, the TGI in the test on T-47D breast was greater than 100 µM; with UACC-62 melanoma, 32.2 µM.
As to `O=C(NCCCl)Nc1ccccc1`, the TGI with CAKI-1 renal, with HOP-92 NSCLC, with NCI/ADR-RES ovarian, in the test with PC-3 prostate, in the test with RXF 393 renal and in the test with SK-OV-3 ovarian was greater than 100 µM throughout. Besides, the TGI with T-47D breast and in the test with UACC-62 melanoma was greater than 100 µM in each case.
For `O=C1CC(Cc2n[nH]c3c2CCCC3)CC(=O)N1`, the TGI in the test on CAKI-1 renal, with HOP-92 NSCLC, in the test with NCI/ADR-RES ovarian, with PC-3 prostate, in the test on RXF 393 renal and in the test on SK-OV-3 ovarian was greater than 100 µM in each case. For the same compound, the TGI in the test with T-47D breast and in the test with UACC-62 melanoma was greater than 100 µM throughout.
In the case of `CCN(CC)S(=O)(=O)c1cccc(-c2ccc3c(NC(=O)C4CC4)n[nH]c3c2)c1`, the GI50 is 2.28 µM in the test on CAKI-1 renal; 2.58 µM in the test on HOP-92 NSCLC; greater than 6.25 µM in the test on NCI/ADR-RES ovarian; 2.11 µM with PC-3 prostate; 1.94 µM in the test with RXF 393 renal; 3.48 µM in the test on SK-OV-3 ovarian. The GI50 in the test on T-47D breast was 1.05 µM; with UACC-62 melanoma, 2.28 µM. Also, the TGI in the test on CAKI-1 renal was greater than 6.25 µM; in the test with HOP-92 NSCLC, greater than 6.25 µM; with NCI/ADR-RES ovarian it was greater than 6.25 µM; in the test on PC-3 prostate it was greater than 6.25 µM; with RXF 393 renal it was 5.17 µM; in the test with SK-OV-3 ovarian, greater than 6.25 µM. Besides, the TGI in the test with T-47D breast and in the test on UACC-62 melanoma was greater than 6.25 µM each time.
Consider `O=C(NCc1ccco1)C1CCN(S(=O)(=O)c2ccc(Cl)cc2)CC1`, for which the GI50 in the test on CAKI-1 renal was greater than 100 µM; in the test with HOP-92 NSCLC it was greater than 100 µM; in the test with NCI/ADR-RES ovarian, greater than 100 µM; in the test with PC-3 prostate it was 73.8 µM; in the test with RXF 393 renal, greater than 100 µM; in the test on SK-OV-3 ovarian it was greater than 100 µM. Also, the GI50 was greater than 100 µM in the test with T-47D breast and 80.5 µM in the test on UACC-62 melanoma. For the same compound, the TGI in the test on CAKI-1 renal, in the test on HOP-92 NSCLC, in the test with NCI/ADR-RES ovarian, in the test on PC-3 prostate, in the test on RXF 393 renal and in the test on SK-OV-3 ovarian was greater than 100 µM in each case. Moreover, the TGI with T-47D breast and in the test with UACC-62 melanoma was greater than 100 µM in each case.
